Measured values as given in the supplement of paper PMC10307832.

Legend:
Test in all cases: relative viability (nuclei count vs DMSO), 5 days (fraction); higher = more cells survive
[1] = compound: CC(C)C[C@H](NC(=O)[C@H](Cc1ccccc1)NC(=O)c1cnccn1)B(O)O [Bortezomib] + C[C@]1(O)C[C@@H](c2nc(-c3ccc4ccc(-c5ccccc5)nc4c3)c3c(N)nccn32)C1 [Linsitinib] (partner 1 µM)
In short: (§1)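 Lung cancer cell lines were pin-tool dosed in 1536-well plates on the day after seeding, with either a lone drug or a fixed anchor-drug dose plus five library-drug doses (not always all listed) in √10 steps. Nuclei were counted on 4× images after 5 days. Relative viability is the ratio of treated-well to vehicle-well nuclei counts, with each value a median of duplicate plates.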

[2] = compound: CC1=CC(=NN1)NC2=CC(=NC(=N2)/C=C/C3=CC=CC=C3)N4CCN(CC4)C + CS(=O)(=O)N1CCN(Cc2cc3nc(-c4cccc5[nH]ncc45)nc(N4CCOCC4)c3s2)CC1 [Pictilisib] (partner 1 µM)
In short: as §1

[3] = compound: COC1=CC(c2cc3ccccc3[nH]2)=N/C1=C\c1[nH]c(C)cc1C [Obatoclax] + CC1(C)CCC(c2ccc(Cl)cc2)=C(CN2CCN(c3ccc(C(=O)NS(=O)(=O)c4ccc(N[C@H](CCN5CCOCC5)CSc5ccccc5)c(S(=O)(=O)C(F)(F)F)c4)cc3)CC2)C1 [Navitoclax] (partner 0.5 µM)
In short: as §1

[4] = compound: COC1=CC(c2cc3ccccc3[nH]2)=N/C1=C\c1[nH]c(C)cc1C [Obatoclax] + C[C@]1(O)C[C@@H](c2nc(-c3ccc4ccc(-c5ccccc5)nc4c3)c3c(N)nccn32)C1 [Linsitinib] (partner 1 µM)
In short: as §1

Cell Line	relative viability ([1]; first compound 0.0002 µM)	relative viability ([1]; first compound 0.000632 µM)	relative viability ([1]; first compound 0.002 µM)	relative viability ([1]; first compound 0.006325 µM)	relative viability ([1]; first compound 0.02 µM)	relative viability ([2]; first compound 0.08 µM)	relative viability ([2]; first compound 0.253 µM)	relative viability ([2]; first compound 0.8 µM)	relative viability ([2]; first compound 2.53 µM)	relative viability ([2]; first compound 8 µM)	relative viability ([3]; first compound 0.01 µM)	relative viability ([3]; first compound 0.03162 µM)	relative viability ([3]; first compound 0.1 µM)	relative viability ([3]; first compound 0.3162 µM)	relative viability ([3]; first compound 1 µM)	relative viability ([4]; first compound 0.01 µM)	relative viability ([4]; first compound 0.03162 µM)	relative viability ([4]; first compound 0.1 µM)	relative viability ([4]; first compound 0.3162 µM)	relative viability ([4]; first compound 1 µM)
NCI-H1666	0.791	0.777	0.932	0.226	0.2	0.494	0.389	0.358	0.325	0.176	0.839	1.31	0.865	0.388	0.277	0.876	0.822	0.745	0.313	0.275
NCI-H1703	1.07	0.438	0.252	0.0867	0.0799	–	0.24	0.179	0.182	0.131	1.27	1.34	0.955	0.385	0.292	0.613	0.539	0.407	0.917	0.589
NCI-H1734	0.898	0.674	0.814	0.192	0.129	0.463	0.422	0.456	0.214	0.122	0.745	0.841	–	0.723	0.668	0.808	0.799	–	0.728	0.749
NCI-H1755	1.01	0.955	1	0.323	0.149	0.418	0.351	0.419	0.195	0.0971	0.974	0.966	1	0.951	1.04	0.986	0.996	0.96	0.991	1.03
NCI-H1792	0.526	0.594	0.352	0.537	0.221	0.268	0.259	0.293	0.205	0.0778	0.647	0.586	–	0.626	0.561	0.667	0.502	–	0.48	0.561
NCI-H1793	0.771	0.723	0.808	0.778	0.149	0.229	0.235	0.306	0.293	0.116	0.337	0.291	0.51	0.422	0.47	0.802	0.662	0.935	0.77	0.78
NCI-H1915	1.13	1.13	1.01	1.07	0.0602	0.948	0.674	0.885	0.571	0.289	0.766	0.638	0.711	0.76	0.785	1.07	1.06	1.09	1.07	1.06
NCI-H1944	1.13	1.06	1.06	1.23	0.627	0.317	0.34	0.348	0.281	0.223	0.97	1.01	1.05	1.05	1.08	1.1	1.2	1.27	1.19	1.3
